The record followed here is patent publication US20250333371A1, “COMPOUNDS” (PSYLO PTY LTD, priority 2022, published 2025).

For this assay, the target named is T1, 5-HT2B (Homo sapiens, UniProt P41595).
T1 construct: host or cells: CHO-K1
Nature of the assay: FLIPR Ca2+ flux functional assay, 5-HT2B receptor (stably transfected CHO-K1). Format: cell-based. How it is done:
Activity at 5-HT2A, 5-HT2B and 5-HT2C receptors was determined using a FLIPR Ca^2+ flux assay at WuXi AppTec Co. Ltd. (Hong Kong) Discovery Biology Unit according to their standard protocols. Briefly, stably transfected cells expressing the receptor of interest (HEK293 for 5-HT2A and 5-HT2C; CHO-K1 for 5-HT2B) were grown and plated in a 384 well plate and incubated at 37° C. and 5% CO2 overnight. A 250 mM stock solution of probenecid in FLIPR calcium assay buffer (10 mL) was freshly prepared and combined with a fluorescent dye (Fluo-4 Direct) to give a final assay concentration of 2.5 mM. Reference compounds were 4-fold serially diluted and the screening compounds were 3-fold serially diluted in 100% DMSO for 10 points using Agilent Bravo, and 750 nL was added to a 384 well compound plate using Echo along with 30 μL assay buffer. The fluorescent dye was then added to the assay plate along with assay buffer to a final volume of 40 μL. The cell plate was incubated for 50 min at 37° C. and 5% CO2 and placed into the FLIPR Tetra along with the compound plate. 10 μL of references and compounds were then transferred from the compound plate into the cell plate and the fluorescent signal was read.
Background: Calcium flux is commonly read through the fluorescence of an indicator in the cells.

SMILES strings stand for the structures. Where only a bound is given, the exact number is not on record here.

T1 sequence (P41595 whole entry): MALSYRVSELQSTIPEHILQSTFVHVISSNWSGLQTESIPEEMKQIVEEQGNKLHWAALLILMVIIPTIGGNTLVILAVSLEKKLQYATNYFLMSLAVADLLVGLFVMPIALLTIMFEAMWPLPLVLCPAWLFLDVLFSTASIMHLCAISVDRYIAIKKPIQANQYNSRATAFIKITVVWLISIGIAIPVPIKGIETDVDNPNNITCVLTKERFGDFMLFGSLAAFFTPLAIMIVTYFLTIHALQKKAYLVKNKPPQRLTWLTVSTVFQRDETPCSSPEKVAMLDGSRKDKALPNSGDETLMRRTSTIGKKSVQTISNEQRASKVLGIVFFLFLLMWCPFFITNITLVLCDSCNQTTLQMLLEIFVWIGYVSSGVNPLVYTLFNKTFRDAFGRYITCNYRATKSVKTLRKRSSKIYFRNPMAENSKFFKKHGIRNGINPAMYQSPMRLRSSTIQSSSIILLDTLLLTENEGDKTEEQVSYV

Usually EC50 stands for the concentration that produces a half-maximal response. A lower EC50 goes with greater potency. As a reminder, the Emax is the greatest response seen or fitted, relative to the assay's reference. As to `COc1ccc2cccc(CCN(C)C(C)C)c2c1` [Example I-7, N-(2-(7-methoxynaphthalen-1-yl)ethyl)-N-methylpropan-2-amine], the EC50 is above 10 µM. Moreover, the Emax (agonist activity, Ca2+ flux, CHO-K1) came to 36%.
